For one test, the system named is T1, human RORγ.
T1 construct: RORC-LBD region 229-497aa; made in house; host or cells: Escherichia coli BL21-DE3
In words: Dissociation assay, jump dilution method (TR-FRET), human. The format is binding. As for the experimental part:
To understand the inverse agonist behavior at the molecular level, interaction with the nuclear receptor RORγ was analyzed in binding assays by estimating its dissociation constant (Koff) and half-life (t1/2). The binding of a ligand stabilizes the conformation of the LBD while binding of a cofactor modifies receptor activity. Binding reversibility was evaluated by adding an excess of competing ligand in the FRET assay and evaluating the displacement of the tracer with inhibitor. Binding of the PCCR-1 with the LBD caused reduction in FRET on antibody addition forming a GST (Glutathione S-transferases) tagged RORγ-antibody complex. The dissociation assay was performed using the jump dilution method with PCCR-1 at a concentration showing maximum binding potency or IC90. The dissociation was tested on addition of an excess of a competitive ligand, the tracer.

Test [1] has as its system Cerep Panel of receptors, ion channels and enzymes. Description: Cerep panel of receptors (binding/functional assays). Also noted: key: NSE No significant effect; V wk very weak (very low-level agonist activity seen with mPPARγ). Particulars: at 10 µM, except targets listed in the next line. An excerpt:
(§1) Based on the homology of the ligand binding domains, 3 different isoforms of ROR (hRORα, hRORβ and hRORγ) are reported. Small variations in the LBD regions possibly lead to differences in competitive binding between the nuclear receptors of the ROR isoforms (Fig. 1b). Similar to the assessment of RORγ binding assay, TR-FRET binding assays were also used to assess the affinity of PCCR-1 for other ROR isoforms. […] This was reconfirmed in cellular functional assays for the selected isoforms and nuclear receptors using Gal4 DBD with luciferase reporter system from Indigo (PA, USA). […] In addition, both cellular agonist and antagonist effects as well as for enzyme activity were evaluated with a known reference compound for each target, using a radiolabeled method (Eurofins Cerep, France, Table 1).

Another test concerns the target T2, mouse RORγ LBD (Mus musculus, UniProt P51450).
T2 construct: RORγt-LBD region 264-516aa; made in house
Description: RORγt-LBD co-activator ligand binding TR-FRET assay, mouse. The conditions noted are these: n = 6. The text has this: To identify small molecule RORγ inhibitors, we conducted in vitro screening using a TR-FRET binding assay to determine the inhibition of RORγ with a series of different compounds. With extensive effort and from hit identification to lead optimization, PCCR-1 was identified[29] (Fig. 1A). Based on the homology of the ligand binding domains (LBD) between different ROR isoforms (hRORα, hRORβ and hRORγ), slight variations have been observed in the LBD regions which possibly lead to differences in competitive binding between the isoforms (Fig. 1B). Simultaneous binding of a tracer and antibody results in an increase in fluorescence resonance energy transfer (FRET), which decreases with displacement of the tracer upon inhibitor binding.
The human and mouse RORγt cDNA clones were obtained from OriGene (MD USA). […] The next day, plate was read on Infinite F500 reader (Magellan Tecan Switzerland). […] The percent activity of each dilution was determined as the ratio of background corrected signal to the background corrected signal of wells receiving only DMSO. IC50 values were determined by fitting percent inhibition data in GraphPad Prism (version-5.01) software.
In general terms: TR-FRET usually uses a lanthanide donor and a delayed reading to cut background.

In the next test the target is T3, Alpha 1A (Homo sapiens, UniProt P35348).
T3 construct: Eurofins Cerep
T3 sequence (P35348 whole entry): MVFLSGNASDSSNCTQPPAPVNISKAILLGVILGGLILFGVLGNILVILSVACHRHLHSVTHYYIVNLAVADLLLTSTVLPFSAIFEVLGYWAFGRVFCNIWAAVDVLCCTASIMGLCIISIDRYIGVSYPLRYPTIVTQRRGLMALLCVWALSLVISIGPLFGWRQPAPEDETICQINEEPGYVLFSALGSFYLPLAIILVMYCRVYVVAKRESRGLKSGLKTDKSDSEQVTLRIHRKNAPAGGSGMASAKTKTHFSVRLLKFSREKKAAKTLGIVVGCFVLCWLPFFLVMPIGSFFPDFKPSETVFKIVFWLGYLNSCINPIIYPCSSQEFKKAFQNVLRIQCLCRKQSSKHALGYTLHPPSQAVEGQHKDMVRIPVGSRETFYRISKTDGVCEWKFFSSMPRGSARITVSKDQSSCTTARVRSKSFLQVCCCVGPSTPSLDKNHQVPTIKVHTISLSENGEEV
In words: Cerep panel, Alpha 1A (antagonist). The format is cell-based. Particulars: read-out: IC50 Alpha 1A (antg).
Excerpt: as §1

A further test concerns RXR. Description: TR-FRET selectivity binding assay, RXR.
Excerpt: as §1
(§2) For selectivity, the ROR isoforms RORα, FXR, LXRα, LXRβ, RXR, RARα were incubated with compound for 60 min at 22 °C followed by detection mix containing respective agonist (All trans retinoic acid for RARα, T0901317 for LXRα, LXRβ, 9-cis Retinoic acid for RXR, GW-4064 for FXR) and coactivator peptide (FD22 for RORα, PGC1α for RXR, RARα, TRAP220 for LXRα, LXRβ, SRC2-2 for FXR) and Tb-anti GST antibody prepared in assay buffer were added into a 384-well white plate. Reading taken after overnight incubation and the data analysis done as per the protocol mentioned in RORγt-LBD and co-activator ligand binding assay.

The target in test [2] is non RORγ isoforms and other major nuclear receptors. Description: TR-FRET binding assays, other ROR isoforms and major nuclear receptors (summary).
Excerpt: as §1
For selectivity, the ROR isoforms RORα, FXR, LXRα, LXRβ, RXR, RARα were incubated with compound for 60 min at 22 °C followed by detection mix containing respective agonist (All trans retinoic acid for RARα, T0901317 for LXRα, LXRβ, 9-cis Retinoic acid for RXR, GW-4064 for FXR) and coactivator peptide (FD22 for RORα, PGC1α for RXR, RARα, TRAP220 for LXRα, LXRβ, SRC2-2 for FXR) and Tb-anti GST antibody prepared in assay buffer were added into a 384-well white plate. […]

A further test has as its system T4, LXRα.
T4 construct: purchased Invitrogen
Description: TR-FRET selectivity binding assay, LXRα.
Excerpt: as §1, §2

Another test deals with GABA Cl. Description: Cerep panel, GABA Cl.
Excerpt: as §1

As a reminder, the IC50 is the concentration at which inhibition is half-maximal.

Several values for one entry are separate records, joined by “and”; a condition that tells them apart may be missing. Equal values may be shown once.

T2 sequence (P51450 264-516): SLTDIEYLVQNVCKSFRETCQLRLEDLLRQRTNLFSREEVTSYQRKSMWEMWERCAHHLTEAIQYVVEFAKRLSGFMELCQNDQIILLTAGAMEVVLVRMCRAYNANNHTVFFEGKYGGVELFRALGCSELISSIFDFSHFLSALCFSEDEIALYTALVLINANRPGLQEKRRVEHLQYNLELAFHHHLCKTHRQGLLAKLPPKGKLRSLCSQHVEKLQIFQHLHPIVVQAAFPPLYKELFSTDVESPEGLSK

As to `CCn1c(C(C)(C)Oc2ccc(F)cc2F)nc2cc(NC(=O)Cc3ccc(S(=O)(=O)CC)cc3)ccc21` [PCCR-1], the dissociation in the test with human RORγ (after 290 min (~ 5 h)) came to 50%. For the same compound, in the test with human RORγ (human RORγ, jump dilution, PCCR-1 at IC90), the “t1/2 (target residence time)” value was determined as 4.84 h. The same compound had an absolute dissociation in the test on human RORγ (human, till 3 h of measurement) of 50%. In test [1], the “Cerep Panel of receptors (binding/functional assays)” value is recorded as “NSE at 10 µM except#”. Further, the IC50 at mouse RORγ LBD is 778 nM; on Alpha 1A, 190 nM; in test [2] (TR-FRET, read-out: IC50 for the rest of the non RORγ isoforms and other major nuclear receptors), more than 10000 nM; with GABA Cl, 4800 nM. For the same compound, the “% Inhibition RXR” value with RXR (1 µM) worked out at 0.00%; in the test with RXR (10 µM), 8.24%. Also, the “Fold over hRORγ, RXR” value in the test with RXR (vs RORg IC50 31.87 nM) is more than 313.7 fold. For the same compound, the “fold selectivity over other ROR isoforms / nuclear receptors” value in test [2] (relative to RORγ) is > 313.7 fold and > 300 fold. Moreover, the “% Inhibition LXRα” value with LXRα (1 µM) worked out at 11.38%; in the test with LXRα (10 µM) it was 30.37%. Also, the “Fold over hRORγ, LXRα” value in the test on LXRα (vs RORg IC50 31.87 nM) is more than 313.7 fold.

Values taken from PMC9130233, “An inhibitor of RORγ for chronic pulmonary obstructive disease treatment” (Scientific Reports, 2022).
